# Experiments:
# Assay in all cases: KINOMEscan competition binding
# CDK18 (human) = CDK18 (human) (UniProt Q07002)
# TNK2 (human) = TNK2 (human) (UniProt Q07912)
# FLT4 (human) = FLT4 (human) (UniProt P35916)
# HUNK (human) = HUNK (human) (UniProt P57058)
# MAP3K10 (human) = MAP3K10 (human) (UniProt Q02779)
# [1] = molecular target: MET (human), P08581 [Y1235D]
# [2] = molecular target: EIF2AK4 KD2 (human), Q9P2K8 [S808G]
# SLK (human) = SLK (human) (UniProt Q9H2G2)
# PRKCD (human) = PRKCD (human) (UniProt Q05655)
# Chain of PRKCD (human) (Q05655 whole entry, looked up): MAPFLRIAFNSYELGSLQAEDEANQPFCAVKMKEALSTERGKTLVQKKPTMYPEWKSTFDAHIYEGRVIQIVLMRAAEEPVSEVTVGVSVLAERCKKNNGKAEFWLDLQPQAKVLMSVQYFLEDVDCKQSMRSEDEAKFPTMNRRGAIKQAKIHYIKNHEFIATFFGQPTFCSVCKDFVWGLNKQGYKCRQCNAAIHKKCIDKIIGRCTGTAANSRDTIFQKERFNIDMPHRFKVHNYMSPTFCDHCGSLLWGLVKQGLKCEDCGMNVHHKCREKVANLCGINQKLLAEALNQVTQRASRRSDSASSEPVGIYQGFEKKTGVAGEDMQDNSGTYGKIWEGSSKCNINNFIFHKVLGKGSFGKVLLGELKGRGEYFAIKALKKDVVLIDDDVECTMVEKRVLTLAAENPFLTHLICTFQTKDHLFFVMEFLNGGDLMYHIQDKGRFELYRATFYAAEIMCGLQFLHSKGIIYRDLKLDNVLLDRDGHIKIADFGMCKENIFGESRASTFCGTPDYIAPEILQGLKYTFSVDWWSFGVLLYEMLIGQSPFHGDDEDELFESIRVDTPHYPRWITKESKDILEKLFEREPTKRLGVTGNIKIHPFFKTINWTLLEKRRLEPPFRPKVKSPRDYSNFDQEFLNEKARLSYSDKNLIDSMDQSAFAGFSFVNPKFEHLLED
# [3] = molecular target: JAK2 JH1 catalytic (human) (UniProt O60674)
# PLK4 (human) = PLK4 (human) (UniProt O00444)
# LTK (human) = LTK (human) (UniProt P29376)
# Chain of LTK (human) (P29376 whole entry, looked up): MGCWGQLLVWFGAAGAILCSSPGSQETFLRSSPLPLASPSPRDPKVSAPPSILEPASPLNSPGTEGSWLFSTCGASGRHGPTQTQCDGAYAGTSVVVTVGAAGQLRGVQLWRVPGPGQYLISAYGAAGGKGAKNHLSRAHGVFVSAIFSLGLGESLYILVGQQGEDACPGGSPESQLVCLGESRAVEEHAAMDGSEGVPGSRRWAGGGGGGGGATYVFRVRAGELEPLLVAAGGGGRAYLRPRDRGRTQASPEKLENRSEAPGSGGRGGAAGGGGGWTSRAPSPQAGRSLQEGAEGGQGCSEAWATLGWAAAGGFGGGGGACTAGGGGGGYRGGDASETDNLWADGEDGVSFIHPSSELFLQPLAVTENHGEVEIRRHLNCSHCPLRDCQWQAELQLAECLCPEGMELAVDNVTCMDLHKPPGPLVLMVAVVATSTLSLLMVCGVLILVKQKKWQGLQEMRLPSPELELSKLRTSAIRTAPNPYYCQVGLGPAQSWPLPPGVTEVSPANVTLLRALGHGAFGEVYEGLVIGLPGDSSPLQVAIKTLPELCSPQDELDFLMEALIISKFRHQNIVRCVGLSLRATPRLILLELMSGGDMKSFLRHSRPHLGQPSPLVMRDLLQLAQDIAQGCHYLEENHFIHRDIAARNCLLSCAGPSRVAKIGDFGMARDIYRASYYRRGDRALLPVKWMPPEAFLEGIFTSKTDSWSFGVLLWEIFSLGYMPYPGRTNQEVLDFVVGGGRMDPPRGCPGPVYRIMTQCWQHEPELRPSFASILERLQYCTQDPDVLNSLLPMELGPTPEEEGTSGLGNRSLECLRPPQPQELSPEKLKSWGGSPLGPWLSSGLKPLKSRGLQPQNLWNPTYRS
# PTK2B (human) = PTK2B (human) (UniProt Q14289)
# TEC (human) = TEC (human) (UniProt P42680)
# CDK8 (human) = CDK8 (human) (UniProt P49336)
# MAPK10 (human) = MAPK10 (human) (UniProt P53779)
# MYLK4 (human) = MYLK4 (human) (UniProt Q86YV6)
# FGFR1 (human) = FGFR1 (human) (UniProt P11362)
# RIPK2 (human) = RIPK2 (human) (UniProt O43353)
# BTK (human) = BTK (human) (UniProt Q06187)
# [4] = molecular target: PIK3CA (human), P42336 [E542K]
# Chain of PIK3CA (human), P42336 [E542K] (P42336 whole entry E542K, looked up): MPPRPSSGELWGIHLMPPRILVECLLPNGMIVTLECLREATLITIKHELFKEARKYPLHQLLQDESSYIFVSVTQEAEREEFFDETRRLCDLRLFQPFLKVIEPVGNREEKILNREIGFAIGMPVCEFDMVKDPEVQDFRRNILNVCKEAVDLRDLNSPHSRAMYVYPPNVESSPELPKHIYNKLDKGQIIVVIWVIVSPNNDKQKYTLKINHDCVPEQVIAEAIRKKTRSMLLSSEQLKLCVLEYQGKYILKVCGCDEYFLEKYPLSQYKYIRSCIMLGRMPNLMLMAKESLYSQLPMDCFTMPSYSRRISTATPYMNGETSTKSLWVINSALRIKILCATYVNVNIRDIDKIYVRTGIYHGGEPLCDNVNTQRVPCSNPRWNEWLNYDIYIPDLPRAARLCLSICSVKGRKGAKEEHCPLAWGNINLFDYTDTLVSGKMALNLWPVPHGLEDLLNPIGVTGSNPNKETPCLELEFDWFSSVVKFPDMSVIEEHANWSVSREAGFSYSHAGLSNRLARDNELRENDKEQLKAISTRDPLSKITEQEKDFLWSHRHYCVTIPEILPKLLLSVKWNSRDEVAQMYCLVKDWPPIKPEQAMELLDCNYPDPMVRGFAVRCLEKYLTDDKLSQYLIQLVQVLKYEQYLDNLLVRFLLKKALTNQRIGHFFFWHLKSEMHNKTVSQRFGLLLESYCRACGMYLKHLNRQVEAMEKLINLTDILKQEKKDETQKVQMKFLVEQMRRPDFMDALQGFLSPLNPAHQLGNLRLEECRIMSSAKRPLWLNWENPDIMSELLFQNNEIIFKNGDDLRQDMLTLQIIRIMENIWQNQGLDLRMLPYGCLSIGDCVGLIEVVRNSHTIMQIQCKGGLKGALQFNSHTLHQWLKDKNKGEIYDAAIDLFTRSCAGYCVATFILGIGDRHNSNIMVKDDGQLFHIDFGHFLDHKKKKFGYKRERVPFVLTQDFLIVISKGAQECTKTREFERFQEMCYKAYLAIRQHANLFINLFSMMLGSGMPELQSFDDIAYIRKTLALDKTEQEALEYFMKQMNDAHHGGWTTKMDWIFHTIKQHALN
# CLK4 (human) = CLK4 (human) (UniProt Q9HAZ1)
# LIMK1 (human) = LIMK1 (human) (UniProt P53667)
# MAP4K5 (human) = MAP4K5 (human) (UniProt Q9Y4K4)
# MYO3B (human) = MYO3B (human) (UniProt Q8WXR4)
# MINK1 (human) = MINK1 (human) (UniProt Q8N4C8)
# GSK3A (human) = GSK3A (human) (UniProt P49840)
# EPHB1 (human) = EPHB1 (human) (UniProt P54762)
# ADCK4 (human) = ADCK4 (human) (UniProt Q96D53)
# Chain of ADCK4 (human) (Q96D53 whole entry, looked up): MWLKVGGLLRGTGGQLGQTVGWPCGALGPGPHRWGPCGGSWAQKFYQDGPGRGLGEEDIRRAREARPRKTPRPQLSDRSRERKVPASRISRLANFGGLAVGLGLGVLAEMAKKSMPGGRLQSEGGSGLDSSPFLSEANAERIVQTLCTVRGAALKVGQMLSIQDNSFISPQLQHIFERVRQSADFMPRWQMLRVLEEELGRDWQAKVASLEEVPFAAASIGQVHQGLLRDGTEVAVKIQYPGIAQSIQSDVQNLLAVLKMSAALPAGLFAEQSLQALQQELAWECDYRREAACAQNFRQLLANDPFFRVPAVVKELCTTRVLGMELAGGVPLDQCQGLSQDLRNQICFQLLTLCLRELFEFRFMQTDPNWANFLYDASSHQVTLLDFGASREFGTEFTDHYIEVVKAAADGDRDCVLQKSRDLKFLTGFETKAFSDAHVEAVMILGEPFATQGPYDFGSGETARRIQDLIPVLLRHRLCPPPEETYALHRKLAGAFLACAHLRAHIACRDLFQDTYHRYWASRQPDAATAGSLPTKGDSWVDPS
# TSSK1B (human) = TSSK1B (human) (UniProt Q9BXA7)
# MLTK (human) = MLTK (human) (UniProt Q9NYL2)
# CDK7 (human) = CDK7 (human) (UniProt P50613)
# MKNK2 (human) = MKNK2 (human) (UniProt Q9HBH9)
# PRKCQ (human) = PRKCQ (human) (UniProt Q04759)
# MYLK2 (human) = MYLK2 (human) (UniProt Q9H1R3)
# Chain of MYLK2 (human) (Q9H1R3 whole entry, looked up): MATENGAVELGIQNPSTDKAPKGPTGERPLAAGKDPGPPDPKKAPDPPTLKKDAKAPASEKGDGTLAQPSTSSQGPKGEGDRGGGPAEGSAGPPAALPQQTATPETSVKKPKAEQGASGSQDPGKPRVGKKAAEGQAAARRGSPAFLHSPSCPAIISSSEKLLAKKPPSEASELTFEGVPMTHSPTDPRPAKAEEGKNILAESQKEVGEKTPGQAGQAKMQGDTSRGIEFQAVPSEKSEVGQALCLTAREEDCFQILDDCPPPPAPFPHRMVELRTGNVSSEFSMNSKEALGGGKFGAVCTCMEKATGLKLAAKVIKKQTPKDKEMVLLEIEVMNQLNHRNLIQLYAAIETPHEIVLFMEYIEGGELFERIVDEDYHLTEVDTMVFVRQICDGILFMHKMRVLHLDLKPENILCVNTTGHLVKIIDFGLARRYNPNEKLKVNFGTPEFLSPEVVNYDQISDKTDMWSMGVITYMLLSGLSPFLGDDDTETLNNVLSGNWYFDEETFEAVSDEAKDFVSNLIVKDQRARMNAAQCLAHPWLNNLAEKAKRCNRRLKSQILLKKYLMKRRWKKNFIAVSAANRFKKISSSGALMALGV
# MATK (human) = MATK (human) (UniProt P42679)
# MAP2K4 (human) = MAP2K4 (human) (UniProt P45985)
# STK36 (human) = STK36 (human) (UniProt Q9NRP7)
# CDKL3 (human) = CDKL3 (human) (UniProt Q8IVW4)
# PRKAA1 (human) = PRKAA1 (human) (UniProt Q13131)
# CHEK2 (human) = CHEK2 (human) (UniProt O96017)
# Chain of TNK2 (human) (Q07912 whole entry, looked up): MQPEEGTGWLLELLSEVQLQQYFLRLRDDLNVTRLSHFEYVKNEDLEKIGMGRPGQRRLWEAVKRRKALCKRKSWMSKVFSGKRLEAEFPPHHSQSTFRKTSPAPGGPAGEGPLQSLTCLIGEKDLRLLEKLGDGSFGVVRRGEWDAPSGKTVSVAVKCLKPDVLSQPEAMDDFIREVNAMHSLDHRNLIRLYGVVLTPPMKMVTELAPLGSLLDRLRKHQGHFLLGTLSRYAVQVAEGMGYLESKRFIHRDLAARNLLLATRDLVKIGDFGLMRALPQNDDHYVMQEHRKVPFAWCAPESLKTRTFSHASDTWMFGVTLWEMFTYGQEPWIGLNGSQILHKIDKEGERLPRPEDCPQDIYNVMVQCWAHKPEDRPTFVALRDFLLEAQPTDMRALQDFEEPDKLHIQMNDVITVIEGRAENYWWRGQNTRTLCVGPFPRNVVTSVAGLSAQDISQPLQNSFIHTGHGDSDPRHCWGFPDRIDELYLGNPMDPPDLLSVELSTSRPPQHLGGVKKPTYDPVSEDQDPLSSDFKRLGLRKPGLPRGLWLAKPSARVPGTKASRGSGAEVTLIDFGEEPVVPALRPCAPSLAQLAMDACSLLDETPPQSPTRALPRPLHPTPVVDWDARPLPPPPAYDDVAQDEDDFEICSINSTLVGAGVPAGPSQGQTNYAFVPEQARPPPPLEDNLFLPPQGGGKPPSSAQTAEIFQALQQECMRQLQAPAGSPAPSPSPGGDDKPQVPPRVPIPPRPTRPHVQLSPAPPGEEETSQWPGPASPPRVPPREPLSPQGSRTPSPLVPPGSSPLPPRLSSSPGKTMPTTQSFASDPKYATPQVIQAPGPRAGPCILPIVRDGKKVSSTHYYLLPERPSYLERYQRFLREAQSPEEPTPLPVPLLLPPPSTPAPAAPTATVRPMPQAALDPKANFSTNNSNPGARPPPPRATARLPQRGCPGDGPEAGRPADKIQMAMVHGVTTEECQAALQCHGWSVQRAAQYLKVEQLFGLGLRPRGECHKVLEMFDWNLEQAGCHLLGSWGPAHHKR
smiles,measurement,setting,value
COc1cc2ncnc(Oc3cccc(NC(=O)Nc4cc(C(C)(C)C(F)(F)F)on4)c3)c2cc1OC,Kd,CDK18 (human),1.1 µM
same,Kd,TNK2 (human),8.7 µM
same,Kd,FLT4 (human),0.0093 µM
same,Kd,HUNK (human),12 µM
same,Kd,MAP3K10 (human),5.6 µM
same,Kd,[1],0.26 µM
same,Kd,[2],4.4 µM
same,Kd,SLK (human),0.02 µM
same,Kd,PRKCD (human),1.2 µM
same,Kd,[3],14 µM
same,Kd,PLK4 (human),15 µM
same,Kd,LTK (human),1.2 µM
same,Kd,PTK2B (human),6.6 µM
same,Kd,TEC (human),6 µM
same,Kd,CDK8 (human),1.1 µM
same,Kd,MAPK10 (human),0.088 µM
same,Kd,MYLK4 (human),12 µM
same,Kd,FGFR1 (human),0.84 µM
same,Kd,RIPK2 (human),0.016 µM
same,Kd,BTK (human),9 µM
same,Kd,[4],27 µM
same,Kd,CLK4 (human),16 µM
same,Kd,LIMK1 (human),27 µM
same,Kd,MAP4K5 (human),0.029 µM
same,Kd,MYO3B (human),6.8 µM
same,Kd,MINK1 (human),0.36 µM
same,Kd,GSK3A (human),6 µM
same,Kd,EPHB1 (human),0.15 µM
same,Kd,ADCK4 (human),26 µM
same,Kd,TSSK1B (human),26 µM
same,Kd,MLTK (human),0.0082 µM
same,Kd,CDK7 (human),0.52 µM
same,Kd,MKNK2 (human),0.071 µM
same,Kd,PRKCQ (human),13 µM
same,Kd,MYLK2 (human),7.5 µM
same,Kd,MATK (human),26 µM
same,Kd,MAP2K4 (human),18 µM
same,Kd,STK36 (human),4.7 µM
same,Kd,CDKL3 (human),2 µM
same,Kd,PRKAA1 (human),8.7 µM
same,Kd,CHEK2 (human),8.7 µM

# Reference: the kinase profiling compilation of Christmann-Franck et al. (2016)
